These results are taken from publication PMC9575004 (Journal of Molecular Structure, 2022).

Experiment [1] deals with T1, ovine COX-1 (Ovis aries, UniProt P05979).
T1 sequence (P05979 25-600): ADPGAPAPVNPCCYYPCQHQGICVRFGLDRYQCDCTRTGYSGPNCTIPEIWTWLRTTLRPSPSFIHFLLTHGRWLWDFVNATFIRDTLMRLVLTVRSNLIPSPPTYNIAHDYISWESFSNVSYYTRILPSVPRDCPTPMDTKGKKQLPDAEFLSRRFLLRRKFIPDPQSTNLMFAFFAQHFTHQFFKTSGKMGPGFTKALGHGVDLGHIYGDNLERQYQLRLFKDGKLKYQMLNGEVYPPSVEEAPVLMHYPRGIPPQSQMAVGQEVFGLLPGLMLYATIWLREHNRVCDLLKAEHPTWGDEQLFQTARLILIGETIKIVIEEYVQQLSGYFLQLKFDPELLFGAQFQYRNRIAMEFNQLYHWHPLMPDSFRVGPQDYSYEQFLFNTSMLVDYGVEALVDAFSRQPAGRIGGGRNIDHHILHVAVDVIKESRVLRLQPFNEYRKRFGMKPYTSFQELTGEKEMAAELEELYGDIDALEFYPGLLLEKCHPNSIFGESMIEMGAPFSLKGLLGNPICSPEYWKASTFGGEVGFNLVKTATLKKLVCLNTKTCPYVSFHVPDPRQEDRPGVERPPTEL
Briefly: In vitro COX-1 inhibition, enzyme immunoassay. The format is biochemical.

For experiment [2], the target named is T2, human recombinant COX-2 (Homo sapiens, UniProt P35354).
T2 sequence (P35354 18-604): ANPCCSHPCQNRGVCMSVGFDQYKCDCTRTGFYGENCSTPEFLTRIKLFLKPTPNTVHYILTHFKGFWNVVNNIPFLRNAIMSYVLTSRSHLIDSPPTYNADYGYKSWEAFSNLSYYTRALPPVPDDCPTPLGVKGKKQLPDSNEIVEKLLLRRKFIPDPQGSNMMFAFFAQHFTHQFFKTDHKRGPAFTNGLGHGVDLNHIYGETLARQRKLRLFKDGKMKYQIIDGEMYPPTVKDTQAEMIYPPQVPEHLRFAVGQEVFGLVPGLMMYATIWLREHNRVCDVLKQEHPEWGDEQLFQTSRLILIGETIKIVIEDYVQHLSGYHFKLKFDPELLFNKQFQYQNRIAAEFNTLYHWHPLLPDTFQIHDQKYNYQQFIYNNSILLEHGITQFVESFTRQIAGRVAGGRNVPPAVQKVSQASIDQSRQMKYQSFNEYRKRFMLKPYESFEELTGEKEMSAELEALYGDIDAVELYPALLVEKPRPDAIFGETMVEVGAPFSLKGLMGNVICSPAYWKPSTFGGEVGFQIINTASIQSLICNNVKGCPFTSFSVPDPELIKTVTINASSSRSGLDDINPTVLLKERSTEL
The experiment can be described thus: In vitro COX-2 inhibition, enzyme immunoassay. The format is biochemical. Particulars: for COX-2 S. I. (in vitro COX-2 selectivity index, COX-1/COX-2): ratio COX-1 IC50/COX-2 IC50.

SMILES strings stand for the structures.

For `CCCCCCCCCCCC1=C(O)C(=O)C=C(O)C1=O` [Compound 1, 2,5-dihydroxy-3-undecyl-1,4-benzoquinone], the IC50 in experiment [1] was found to be 6.42 µM; in experiment [2], 2.98 µM. Besides, the “COX-2 S. I. (in vitro COX-2 selectivity index, COX-1/COX-2)” value in experiment [2] came to 2.15.
Consider `CCCCCCCCCCCC1=C(O)C(=O)C=C(NC)C1=O` [Compound 2, 2-Hydroxy-5-(methylamino)-3-undecylcyclohexa-2,5-diene-1,4-dione], for which the IC50 in experiment [1] is 6.54 µM; in experiment [2] it was 3.1 µM. Moreover, in experiment [2], the “COX-2 S. I. (in vitro COX-2 selectivity index, COX-1/COX-2)” value worked out at 2.11.
Turning to `CCCCCCCCCCCC1=C(O)C(=O)C=C(NCCN(C)C)C1=O` [Compound 3, 5-(2-(Dimethylamino)ethylamino)-2-hydroxy-3-undecylcyclohexa-2,5-diene-1,4-dione], the IC50 in experiment [1] came out at 3.58 µM. In addition, in experiment [2], the 50% inhibitory concentration (IC50) is 1.65 µM and the “COX-2 S. I. (in vitro COX-2 selectivity index, COX-1/COX-2)” value is 2.17.
In the same order, the values of `CCCCCCCCCCCC1=C(O)C(=N/C)/C=C(O)C/1=N/C` [Compound 5, (3E, 6E)-3,6-bis(Methylimino)-2-undecylcyclohexa-1,4-diene-1,4-diol] are 7.65 µM, 2.56 µM and 2.98.
In experiment [1], `CCCCCCCCCCCC1=C(O)C(=N/CC)/C=C(O)C/1=N/CC` [Compound 6, (3E, 6E)-3,6-bis(Ethylimino)-2-undecylcyclohexa-1,4-diene-1,4-diol] came in with an IC50 of 6.85 µM. In experiment [2], the IC50 was 2.15 µM and the “COX-2 S. I. (in vitro COX-2 selectivity index, COX-1/COX-2)” value is given as 3.18.
Consider `CCCCCCCCCCCc1c2oc3cccnc3nc-2cc(O)c1=O` [Compound 7, 8-hydroxy-6-undecyl-7H-benzo[b]pyrido[2,3-e][1,4]oxazin-7-one], for which the figures for the IC50 in experiment [1] and in experiment [2] were 3.19 µM and 1.56 µM, respectively. For the same compound, in experiment [2], the “COX-2 S. I. (in vitro COX-2 selectivity index, COX-1/COX-2)” value is on record as 2.04.
With `CCCCCCCCCCCC1=C(OC(C)=O)C(=O)C=C(OC(C)=O)C1=O` [Compound 8, 3,6-Dioxo-2-undecylcyclohexa-1,4-diene-1,4-diyl diacetate], half-maximal inhibition in experiment [1] (IC50) was put at 2.25 µM. Further, in experiment [2], the IC50 turned out to be 1.23 µM and the “COX-2 S. I. (in vitro COX-2 selectivity index, COX-1/COX-2)” value is on record as 1.83.

Broadly, the IC50 is the midpoint of a concentration-inhibition curve.
